US20050124595A1, “Compositions and methods for treating glaucoma and ocular hypertension” (priority 2002, published 2005)

Key:
[1] = molecular target: T1, high-conductance calcium-activated potassium (maxi-K) channels (Homo sapiens, UniProt Q12791); experiment: Patch clamp recordings of maxi-K channel currents in excised inside-out membrane patches; format: biochemical; conditions: from reduction in peak current, 10 nM compound on internal side of membrane patch, held at -80 mV, steps typically to +50 mV
T1 construct: expressed in transfected cells; host or cells: CHO cells (α-subunit alone) and HEK293 cells (α- and β-subunits)
T1 sequence (Q12791 whole entry): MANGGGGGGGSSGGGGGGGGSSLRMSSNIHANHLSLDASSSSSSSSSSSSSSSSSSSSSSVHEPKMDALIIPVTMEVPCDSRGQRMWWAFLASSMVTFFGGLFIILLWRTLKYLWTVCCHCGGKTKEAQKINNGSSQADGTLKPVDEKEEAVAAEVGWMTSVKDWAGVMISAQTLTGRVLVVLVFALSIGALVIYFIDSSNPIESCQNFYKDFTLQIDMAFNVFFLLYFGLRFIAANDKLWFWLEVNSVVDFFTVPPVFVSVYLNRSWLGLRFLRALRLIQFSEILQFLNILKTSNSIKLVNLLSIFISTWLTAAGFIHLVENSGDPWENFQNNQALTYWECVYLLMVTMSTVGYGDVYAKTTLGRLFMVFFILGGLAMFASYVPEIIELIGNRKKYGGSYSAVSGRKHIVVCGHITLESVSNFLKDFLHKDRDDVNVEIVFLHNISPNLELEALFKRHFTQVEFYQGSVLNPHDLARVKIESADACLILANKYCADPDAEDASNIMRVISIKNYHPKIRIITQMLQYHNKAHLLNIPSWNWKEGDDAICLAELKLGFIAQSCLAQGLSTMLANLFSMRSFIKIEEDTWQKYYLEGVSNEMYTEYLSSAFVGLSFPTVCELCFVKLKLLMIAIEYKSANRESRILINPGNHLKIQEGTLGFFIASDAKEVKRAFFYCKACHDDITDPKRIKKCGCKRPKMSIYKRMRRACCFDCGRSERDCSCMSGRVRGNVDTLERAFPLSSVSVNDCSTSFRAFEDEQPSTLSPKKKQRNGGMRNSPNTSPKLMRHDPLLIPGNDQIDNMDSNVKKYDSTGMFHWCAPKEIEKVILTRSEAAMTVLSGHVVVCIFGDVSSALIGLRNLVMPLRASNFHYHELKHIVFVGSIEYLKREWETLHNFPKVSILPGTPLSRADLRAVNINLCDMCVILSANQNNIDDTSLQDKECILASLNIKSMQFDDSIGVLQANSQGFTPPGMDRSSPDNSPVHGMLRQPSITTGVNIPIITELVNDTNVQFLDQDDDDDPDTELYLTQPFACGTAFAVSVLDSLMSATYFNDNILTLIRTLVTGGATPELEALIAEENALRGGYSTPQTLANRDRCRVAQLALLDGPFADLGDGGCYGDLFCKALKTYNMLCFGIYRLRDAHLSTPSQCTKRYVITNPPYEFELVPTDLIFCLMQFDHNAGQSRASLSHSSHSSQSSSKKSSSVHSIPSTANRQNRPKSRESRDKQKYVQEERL
Source text: Patch clamp recordings of currents flowing through high-conductance calcium-activated potassium (maxi-K) channels were made from membrane patches excised from CHO cells constitutively expressing the α-subunit of the maxi-K channel and from HEK293 cells constitutively expressing both α- and β-subunits using conventional techniques (Hamill et al., 1981, Pflügers Archiv. 391, 85-100) at room temperature. Glass capillary tubing (Garner #7052) was pulled in two stages to yield micropipettes with tip diameters of approximately 1-2 microns. Pipettes were typically filled with solutions containing (mM): 150 KCl, 10 Hepes (4-(2-hydroxyethyl)-1-piperazine […]), 1 MgCl2, 0.01 CaCl2, and adjusted to pH 7.20 with 3.7 mM KOH. After forming a high resistance ([…]) seal between the plasma membrane and the pipette, the pipette was withdrawn from the cell, forming an excised inside-out membrane patch. The patch was excised into a bath solution containing (mM): 150 KCl, 10 Hepes, 5 EGTA (ethylene glycol bis(β-aminoethyl ether)-N,N,N′,N′-tetraacetic acid), sufficient Ca to yield a free Ca concentration of 1-5 μM, and the pH was adjusted to 7.2 with KOH. For example, 4.193 mM Ca was added to give a free concentration of 1 μM at 22° C. An EPC9 amplifier (HEKA Elektronic, Lambrect, Germany) was used to control the voltage and to measure the currents flowing across the membrane patch. The input to the headstage was connected to the pipette solution with a Ag/AgCl wire, and the amplifier ground was connected to the bath solution with a Ag/AgCl wire covered with a tube filled with agar dissolved in 0.2 M KCl. […]
The effects of the compounds of the present invention on maxi-K channels was examined in excised inside-out membrane patches. […] The fraction of channels blocked in each experiment was calculated from the reduction in peak current caused by application of 10 nM of specified compound to the internal side of the membrane patch. […]

[2] = system: Mice (CD-1); experiment: Tremorgen assay, mouse model; format: in vivo; conditions: CD-1 mice; for Tremors: intraperitoneal
Method: Tremorgen Assay A mouse model was developed to evaluate the tremorgen potential of the instance compounds. Mice (CD-1) were injected intraperitoneally at 5 mg/Kg with each compound and observed by investigators for 1 hour for any signs of tremors as well as other behaviors not seen in control mice.
A known tremorgen, Aflatrem, consistently produces tremors in injected mice within 15 minutes at 1 and 5 mg/Kg.

| Compound | FRACTION BLOCKED (10 nM) [1] | Tremors ([2]; 5 mg/Kg, observed for 1 hour) | time to tremors after injection ([2]; 1 and 5 mg/Kg) [min] | Tremors ([2]; 1 and 5 mg/Kg) |
| --- | --- | --- | --- | --- |
| CC(C)=CCc1cccc2[nH]c3c(c12)C[C@@H]1CC[C@@]2(O)C45OC4C4OC(C6OC6(C)C)OC(C)(C)C4OC5=CC[C@]2(C)[C@@]31C (some centres unmarked) [Compound III] | 0.99-1 | None |  |  |
| CC(C)=CC1OC2C(OC3=CC[C@]4(C)[C@@]5(C)c6[nH]c7ccccc7c6C[C@@H]5CC[C@@]4(O)C34OC24)C(C)(C)O1 (some centres unmarked) [Compound II] | 0.99-1 | None |  |  |
| CC1(C)OC1Cc1cccc2[nH]c3c(c12)C[C@@H]1CC[C@@]2(O)C45OC4C4OC(C6OC6(C)C)OC(C)(C)C4OC5=CC[C@]2(C)[C@@]31C (some centres unmarked) [Compound I] | 0.9 | None |  |  |
| Aflatrem [reference compound] |  |  | ≤ 15 | Tremors |
